Values joined by “and” are separate entries in the source; they are usually repeats but may differ in a detail not shown here. Equal entries are not always repeated. Structures can show the parent of a compound that is named as a salt. Where two headings read alike, the source gives them in different places.
Key:
HsCLK1 = molecular target: T1, HsCLK1 (Homo sapiens, UniProt P49759); assay: ADP-Glo kinase assay; type: biochemical
T1 construct: host or cells: Sf9 insect cells (baculovirus)

HsDYRK1A = molecular target: T2, HsDYRK1A (Homo sapiens, UniProt Q13627); assay: ADP-Glo kinase assay; type: biochemical; settings: for remaining activity at 1 µM / remaining activity at 10 µM: n=2, read-out: % of residual activity Hs_DYRK1A; for IC50: 10 µM ATP, duplicate
T2 construct: host or cells: Sf9 insect cells (baculovirus)

MmCLK1 = molecular target: T3, MmCLK1 (Mus musculus, UniProt P22518); assay: ADP-Glo kinase assay; type: biochemical; settings: for remaining activity at 1 µM / remaining activity at 10 µM: n=2, read-out: % of residual activity Mm_CLK1
T3 construct: host or cells: bacteria
T3 sequence (P22518 whole entry): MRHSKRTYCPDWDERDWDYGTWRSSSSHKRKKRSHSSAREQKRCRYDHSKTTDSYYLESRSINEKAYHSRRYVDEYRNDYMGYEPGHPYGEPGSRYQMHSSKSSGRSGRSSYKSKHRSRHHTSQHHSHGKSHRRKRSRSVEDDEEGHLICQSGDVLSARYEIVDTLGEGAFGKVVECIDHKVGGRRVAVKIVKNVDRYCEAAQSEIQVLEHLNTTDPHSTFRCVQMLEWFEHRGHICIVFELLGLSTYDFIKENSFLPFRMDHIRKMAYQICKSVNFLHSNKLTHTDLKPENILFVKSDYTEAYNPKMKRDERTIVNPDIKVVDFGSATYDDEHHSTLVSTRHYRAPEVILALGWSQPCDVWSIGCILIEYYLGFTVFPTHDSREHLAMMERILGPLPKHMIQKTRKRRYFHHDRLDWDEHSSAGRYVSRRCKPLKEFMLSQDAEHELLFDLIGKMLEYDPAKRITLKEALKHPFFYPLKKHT

Hs_CDK5/p25 = molecular target: T4, Hs_CDK5/p25 (Homo sapiens, UniProt Q00535); assay: ADP-Glo kinase assay, primary screen; type: biochemical; settings: n=2, read-out: % of residual activity Hs_CDK5/p25
T4 construct: host or cells: bacteria
T4 sequence (Q00535 whole entry): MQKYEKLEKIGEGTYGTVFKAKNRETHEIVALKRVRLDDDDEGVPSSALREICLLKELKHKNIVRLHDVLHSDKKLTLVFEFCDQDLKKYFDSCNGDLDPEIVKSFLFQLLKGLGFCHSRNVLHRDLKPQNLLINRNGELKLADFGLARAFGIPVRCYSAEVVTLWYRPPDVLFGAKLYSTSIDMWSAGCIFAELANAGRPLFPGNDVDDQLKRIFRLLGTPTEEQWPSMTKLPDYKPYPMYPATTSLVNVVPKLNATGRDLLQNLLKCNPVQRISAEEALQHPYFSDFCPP
T4 sequence (Q15078 99-307 partner limits assumed): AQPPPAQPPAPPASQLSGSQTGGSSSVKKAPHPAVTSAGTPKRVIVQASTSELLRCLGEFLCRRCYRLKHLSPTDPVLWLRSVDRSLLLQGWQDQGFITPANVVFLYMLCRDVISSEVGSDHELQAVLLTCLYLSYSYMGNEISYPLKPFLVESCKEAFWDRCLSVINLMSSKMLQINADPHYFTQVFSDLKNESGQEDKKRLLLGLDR

Rn_DYRK1A = molecular target: T5, Rn_DYRK1A (Rattus norvegicus, UniProt Q63470); assay: ADP-Glo kinase assay, primary screen; type: biochemical; settings: n=2, read-out: % of residual activity Rn_DYRK1A
T5 construct: host or cells: bacteria

Hs_HASPIN = molecular target: T6, Hs_HASPIN (Homo sapiens, UniProt Q8TF76); assay: ADP-Glo kinase assay, primary screen; type: biochemical; settings: n=2, read-out: % of residual activity Hs_HASPIN
T6 construct: host or cells: bacteria
T6 sequence (Q8TF76 1-798): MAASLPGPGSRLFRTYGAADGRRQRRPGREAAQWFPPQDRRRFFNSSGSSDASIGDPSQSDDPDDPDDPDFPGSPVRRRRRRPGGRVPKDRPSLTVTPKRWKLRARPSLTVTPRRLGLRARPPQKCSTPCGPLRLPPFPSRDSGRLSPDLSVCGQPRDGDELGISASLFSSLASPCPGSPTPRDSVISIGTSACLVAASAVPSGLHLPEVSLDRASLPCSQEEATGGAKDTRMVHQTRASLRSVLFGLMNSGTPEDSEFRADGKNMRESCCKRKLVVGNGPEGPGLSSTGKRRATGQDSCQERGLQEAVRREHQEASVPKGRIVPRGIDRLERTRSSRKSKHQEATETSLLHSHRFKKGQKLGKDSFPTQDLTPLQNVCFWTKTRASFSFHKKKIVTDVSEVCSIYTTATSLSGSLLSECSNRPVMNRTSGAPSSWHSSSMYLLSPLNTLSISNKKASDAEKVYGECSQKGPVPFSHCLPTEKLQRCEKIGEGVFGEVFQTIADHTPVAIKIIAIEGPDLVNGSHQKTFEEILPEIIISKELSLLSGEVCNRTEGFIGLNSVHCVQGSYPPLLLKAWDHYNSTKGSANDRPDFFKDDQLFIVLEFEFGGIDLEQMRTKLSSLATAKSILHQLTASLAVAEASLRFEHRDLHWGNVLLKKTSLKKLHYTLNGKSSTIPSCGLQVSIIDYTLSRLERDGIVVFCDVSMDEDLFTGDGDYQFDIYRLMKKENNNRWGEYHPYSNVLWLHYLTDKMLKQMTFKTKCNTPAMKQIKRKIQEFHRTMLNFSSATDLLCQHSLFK

Hs_GSK3β = molecular target: T7, Hs_GSK3β (Homo sapiens, UniProt P49841); assay: ADP-Glo kinase assay, primary screen; type: biochemical; settings: n=2, read-out: % of residual activity Hs_GSK3β
T7 construct: host or cells: Sf9 insect cells (baculovirus)
T7 sequence (P49841 whole entry): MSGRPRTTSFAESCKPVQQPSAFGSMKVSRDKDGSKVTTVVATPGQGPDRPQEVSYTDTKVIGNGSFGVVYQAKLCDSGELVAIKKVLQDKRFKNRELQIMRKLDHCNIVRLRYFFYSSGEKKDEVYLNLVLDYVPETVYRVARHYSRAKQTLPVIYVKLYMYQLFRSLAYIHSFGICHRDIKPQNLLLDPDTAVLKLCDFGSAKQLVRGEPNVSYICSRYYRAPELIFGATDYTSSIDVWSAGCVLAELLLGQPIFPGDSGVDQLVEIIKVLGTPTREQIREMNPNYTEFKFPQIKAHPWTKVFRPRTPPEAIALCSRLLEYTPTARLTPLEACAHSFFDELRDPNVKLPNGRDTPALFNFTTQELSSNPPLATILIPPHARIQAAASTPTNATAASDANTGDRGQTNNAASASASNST

Hs_CK1ε = molecular target: T8, Hs_CK1ε (Homo sapiens, UniProt P49674); assay: ADP-Glo kinase assay, primary screen; type: biochemical; settings: n=2, read-out: % of residual activity Hs_CK1ε
T8 construct: host or cells: Sf9 insect cells (baculovirus)
T8 sequence (P49674 whole entry): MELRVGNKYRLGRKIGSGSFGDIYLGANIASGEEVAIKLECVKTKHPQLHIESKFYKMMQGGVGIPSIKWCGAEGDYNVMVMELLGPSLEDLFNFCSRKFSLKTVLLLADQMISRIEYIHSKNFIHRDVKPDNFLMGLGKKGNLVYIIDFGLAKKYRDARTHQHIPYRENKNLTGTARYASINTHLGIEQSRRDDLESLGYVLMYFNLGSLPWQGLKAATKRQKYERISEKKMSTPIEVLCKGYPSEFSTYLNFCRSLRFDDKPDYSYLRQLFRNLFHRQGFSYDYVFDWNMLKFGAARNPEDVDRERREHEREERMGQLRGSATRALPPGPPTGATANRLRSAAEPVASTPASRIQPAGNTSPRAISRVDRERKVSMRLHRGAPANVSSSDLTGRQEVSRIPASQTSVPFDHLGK

[1] = cytotoxic assay, nuclei count (Hoechst, HCS); type: cell-based; settings: human, HuH7 cells (hepatocellular carcinoma); 48 h treatment; read-out: Cytotoxic studies IC50 HuH7
[2] = cytotoxic assay, nuclei count (Hoechst, HCS); type: cell-based; settings: human, 48 h treatment
[3] = cytotoxic assay, nuclei count (Hoechst, HCS); type: cell-based; settings: human, MCF7 cells (breast carcinoma); 48 h treatment; read-out: Cytotoxic studies IC50 MCF7
[4] = cytotoxic assay, nuclei count (Hoechst, HCS); type: cell-based, human; settings: human, human skin fibroblasts (non-cancerous reference cells); 48 h treatment; some cells add low/moderate/high amplitude; read-out: Cytotoxic studies IC50 Fibroblasts
[5] = 10 µM ATP, duplicate, read-out: IC50 HsCLK1
[6] = mouse CLK1 orthologue, read-out: IC50 MmCLK1
[7] = HCT116 cells (colorectal adenocarcinoma), read-out: Cytotoxic studies IC50 HCT116
[8] = MDA-MB-468 cells (breast carcinoma), read-out: Cytotoxic studies IC50 MDA-MB-468

T1 sequence (P49759 whole entry): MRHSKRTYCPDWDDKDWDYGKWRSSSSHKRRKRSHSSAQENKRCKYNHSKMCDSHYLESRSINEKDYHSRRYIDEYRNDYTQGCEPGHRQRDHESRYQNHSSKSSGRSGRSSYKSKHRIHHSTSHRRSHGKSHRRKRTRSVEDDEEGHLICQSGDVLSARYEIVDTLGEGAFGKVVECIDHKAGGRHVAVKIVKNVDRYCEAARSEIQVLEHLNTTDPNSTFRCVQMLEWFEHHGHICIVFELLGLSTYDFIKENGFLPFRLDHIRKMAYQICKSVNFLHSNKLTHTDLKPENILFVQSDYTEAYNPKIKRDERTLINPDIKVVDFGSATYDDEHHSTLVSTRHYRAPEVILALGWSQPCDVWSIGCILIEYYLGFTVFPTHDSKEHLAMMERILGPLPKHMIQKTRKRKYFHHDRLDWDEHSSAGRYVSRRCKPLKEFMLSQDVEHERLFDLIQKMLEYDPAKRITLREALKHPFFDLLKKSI

| Compound | IC50 (HsCLK1; [5]) | remaining activity at 1 µM (HsDYRK1A) | remaining activity at 10 µM (HsDYRK1A) | remaining activity at 1 µM (MmCLK1) | remaining activity at 10 µM (MmCLK1) | IC50 (MmCLK1; [6]) | remaining activity at 1 µM (Hs_CDK5/p25) | remaining activity at 10 µM (Hs_CDK5/p25) | remaining activity at 1 µM (Rn_DYRK1A) | remaining activity at 10 µM (Rn_DYRK1A) | remaining activity at 1 µM (Hs_HASPIN) | remaining activity at 10 µM (Hs_HASPIN) | remaining activity at 1 µM (Hs_GSK3β) | remaining activity at 10 µM (Hs_GSK3β) | remaining activity at 1 µM (Hs_CK1ε) | remaining activity at 10 µM (Hs_CK1ε) | IC50 at 48 h [1] | IC50 at 48 h [2, 7] | IC50 at 48 h [2, 8] | IC50 at 48 h [3] | further results |
| --- | --- | --- | --- | --- | --- | --- | --- | --- | --- | --- | --- | --- | --- | --- | --- | --- | --- | --- | --- | --- | --- |
| Cc1ccc(-n2cc(COc3cccc4cnc(Nc5cc(Cl)cc(Cl)c5)nc34)nn2)c([N+](=O)[O-])c1 [7b, N-(3,5-dichlorophenyl)-8-((1-(4-methyl-2-nitrophenyl)-1H-1,2,3-triazol-4-yl)methoxy)quinazolin-2-amine] | 85 nM | ≥ 100% | 80% | 14% | 17% | 280 to 369 nM | 93% | 68% | 87% | 95% | 81% | 46% | 85% | 36% | 81% | 47% | > 25000 nM | > 25 µM | > 25 µM | 24 µM | activity on the human DYRK1A (HsDYRK1A): completely inactive; IC50 (HsDYRK1A): > 100000 nM; IC50 at 48 h [4]: > 25 µM |
| O=[N+]([O-])c1cc(CO)ccc1-n1cc(COc2cccc3cnc(Nc4cccc(Cl)c4)nc23)nn1 [12e, 4-(4-(((2-((3-Chlorophenyl)amino)quinazolin-8-yl)oxy)methyl)-1H-1,2,3-triazol-1-yl)-3-nitrobenzyl alcohol] | 146 nM | 84% | 31% | 74% | 35% | 191 nM | ≥ 100% | 54% | 80% | 34% | 92% | 88% | 99% | 35% | ≥ 100% | 52% | 3000 nM | 3 µM | 4 µM | 4 µM | IC50 (HsCLK1; read-out: IC50 human CLK1): 150 to 200 nM; IC50 (HsDYRK1A): 2300 nM and 2330 nM; IC50 at 48 h [4]: 6 µM |
| N[C@H]1CC[C@@H](n2cc(COc3cccc4cnc(Nc5cc(Cl)cc(Cl)c5)nc34)nn2)CC1 [16b, 8-((1-((cis)-4-Aminocyclohexyl)-1H-1,2,3-triazol-4-yl)methoxy)-N-(3,5-dichlorophenyl)quinazolin-2-amine hydrochloride] | 53 nM | 85% | 38% | 19% | 8% | 180 nM | 87% | 44% | 71% | 20% | 76% | 76% | 47% | 8% | 82% | 24% | 2000 nM | 2.4 µM | 1 µM | 3 µM | IC50 (HsDYRK1A): 1900 nM; IC50 at 48 h [4]: 2 µM |
| Cc1ccc(-n2cc(COc3cccc4cnc(Nc5cccc(Cl)c5)nc34)nn2)c([N+](=O)[O-])c1 [DB18] |  |  |  |  |  |  |  |  |  |  |  |  |  |  |  |  |  |  |  |  | IC50 (MmCLK1): 120 nM |
| COC(=O)c1ccc(-n2cc(COc3cccc4cnc(Nc5cccc(Cl)c5)nc34)nn2)c([N+](=O)[O-])c1 [12f, Methyl 4-(4-(((2-((3-chlorophenyl)amino)quinazolin-8-yl)oxy)methyl)-1H-1,2,3-triazol-1-yl)-3-nitrobenzoate] | 293 nM | ≥ 100% | 93% | 28% | 18% | 245 nM | ≥ 100% | 61% | ≥ 100% | 83% | 73% | 76% | 99% | 69% | ≥ 100% | 95% | > 25000 nM | > 25 µM | > 25 µM | > 25 µM | IC50 at 48 h [4]: > 25 µM |
| O=[N+]([O-])c1cc(Br)ccc1-n1cc(COc2cccc3cnc(Nc4cccc(Cl)c4)nc23)nn1 [12d, N-(3-Chlorophenyl)-8-((1-(4-bromo-2-nitrophenyl)-1H-1,2,3-triazol-4-yl)methoxy)quinazolin-2-amine] | 200 to 300 nM and 378 nM | ≥ 100% | 77% | 27% | 22% | 391 nM | ≥ 100% | ≥ 100% | ≥ 100% | 76% | 91% | 95% | ≥ 100% | 75% | ≥ 100% | 90% | 2000 nM | > 25 µM | > 25 µM | > 25 µM | IC50 at 48 h [4]: 13 µM |
| O=C(O)c1ccc(-n2cc(COc3cccc4cnc(Nc5cccc(Cl)c5)nc34)nn2)c([N+](=O)[O-])c1 [12g, 4-(4-(((2-((3-Chlorophenyl)amino)quinazolin-8-yl)oxy)methyl)-1H-1,2,3-triazol-1-yl)-3-nitrobenzoic acid] | 4 nM | 86% | 50% | 13% | 5% | 24 nM | 45% | 97% | 61% | 39% | 75% | 69% | 76% | 19% | 98% | 72% | > 25000 nM | > 25 µM | > 25 µM | > 25 µM | IC50 (HsDYRK1A): 3940 nM; IC50 at 48 h [4]: > 25 µM |

Source: article PMC9571063 (Molecules, 2022)
